SMILES strings stand for the structures.

The target of the assay is T1, pVER-IPTG-082 (Escherichia coli, UniProt P03023, G200A/Q209R/Q317L/R263H/S190C/V94M).
T1 construct: gene lacI; LacI expressed from pVER plasmid
The assay can be described thus: In vivo IPTG dose-response of LacI-regulated eYFP expression from the pVER plasmid in E. coli grown in rich M9 medium at 37 °C, measured by flow cytometry and fitted to the Hill equation by Bayesian MCMC (posterior mean and SD). Type of assay: cell-based, E. coli MG1655Δlac. The note with it: read-out: log_ec50 (base-10 logarithm of EC50 in μmol/L) (converted). The method, then: All reported measurements were completed using E. coli strain MG1655Δlac, in which the lactose operon of E. coli strain MG1655 (ATCC #47076) was replaced with the bleomycin resistance gene from Streptoalloteichus hindustanus (Shble).
Dose-response curves were measured with flow cytometry using E. coli MG1655Δlac transformed with variants of the pVER plasmid, described previously. The plasmid contained different variants of the lacI coding DNA sequence (CDS), as described in the text, and an expression cassette with enhanced yellow fluorescent protein (eYFP) under the control of the lactose operator (lacO). The lacI CDS was verified with Sanger sequencing for each variant.
All cultures were grown in a rich M9 media (3 g/L KH2PO4, 6.78 g/L Na2HPO4, 0.5 g/L NaCl, 1 g/L NH4Cl, 0.1 mmol/L CaCl2, 2 mmol/L MgSO4, 4% glycerol, and 20 g/L casamino acids) supplemented with 50 μg/mL kanamycin.
• Prepare first growth plate, with 450 μL rich M9 media in each well. • Pipette 50 μL of starter culture into each well in rows B-G of the plate (leaving rows A and H blank). • Use a E. coli containing a different lacI variant for each row. • Seal first growth plate with gas permeable membrane. • Incubate plate in plate reader for 12 h to 14 h. • Grow to stationary to provide a reproducible starting point for each measurement. • Prepare second growth plate with 490 μL in each well. • Dilution series of isopropyl-β-D-thiogalactopyranoside (IPTG): 11 columns of a 2-fold serial dilution gradient and one column with zero IPTG. • Ten minutes before the end of the incubation cycle for the first growth plate, move the second growth plate to a heated station set to 47°C. • Ten minutes at 47°C will pre-warm the media in the plate to 37°C. • De-seal the first growth plate (after completion of the stationary-phase incubation cycle). • Pipette 10 μL from each well in the first growth plate to the corresponding well in the second growth plate. • 50-fold dilution; using a 96-channel pipetting head. • Seal second growth plate with gas permeable membrane. • Incubate second growth plate in plate reader for 160 minutes. • Sufficient for approximately 10-fold increase in cell density or 3.3 doublings. • Prepare third growth plate with 450 μL in each well. • Same dilution series as in second growth plate. • Ten minutes before the end of the incubation cycle for the second growth plate, move the third growth plate to a heated station set to 47°C. • De-seal the second growth plate (after completion of the 160 minute incubation cycle). • Pipette 50 μL from each well in the second growth plate to the corresponding well in the third growth plate. • 10-fold dilution; using a 96-channel pipetting head. • Seal third growth plate with gas permeable membrane. • Incubate third growth plate in plate reader for 160 minutes. • Prepare flow cytometry sample plate (round-bottom 96-well plate, Falcon, 351177). • Each well in rows B-G: 195 μL 1x PBS with 170 μg/mL chloramphenicol (Fisher BioReagents, cat. #BP904-100). • Rows A and H: PBS blanks, focusing fluid blanks, and space for calibration bead sample • At the end of the incubation cycle for the third growth plate, pipette 5 μL from each well to the corresponding well in the flow cytometry sample plate.
Flow cytometry samples were measured with an Attune NxT flow cytometer equipped with a 96-well plate autosampler using a 488 nm excitation laser and a 530 nm ± 15 nm bandpass emission filter. Blank samples were measured with each batch of cell measurements, and an automated gating algorithm was used to discriminate cell events from non-cell events. Fluorescence calibration beads (Spherotech, part no. RCP-30-20A) were also measured with each batch of samples to facilitate calibration of flow cytometry data to molecules of equivalent fluorescein (MEF). […]

T1 sequence (P03023 whole entry V94M/S190C/G200A/Q209R/R263H/Q317L): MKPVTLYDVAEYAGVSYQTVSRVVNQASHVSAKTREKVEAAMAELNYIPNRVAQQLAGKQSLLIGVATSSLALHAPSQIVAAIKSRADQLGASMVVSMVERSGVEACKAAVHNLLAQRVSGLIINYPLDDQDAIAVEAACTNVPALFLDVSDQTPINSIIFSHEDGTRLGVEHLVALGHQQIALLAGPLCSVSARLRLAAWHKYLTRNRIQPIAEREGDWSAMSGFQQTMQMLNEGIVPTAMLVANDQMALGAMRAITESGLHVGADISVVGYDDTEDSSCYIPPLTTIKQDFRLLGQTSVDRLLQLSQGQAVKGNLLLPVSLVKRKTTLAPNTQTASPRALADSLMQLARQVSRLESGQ

`CC(C)S[C@@H]1O[C@H](CO)[C@H](O)[C@H](O)[C@H]1O` [IPTG, isopropyl-β-D-thiogalactopyranoside]: the EC50 is 27.8 µmol/L.
